The assay has as its system 496974-208-R-J2-PDC complex spheroids, growth % test/control. Nature of the assay: Anticancer human tumor 496974-208-R-J2-PDC patient-derived pancreatic carcinoma cell line growth inhibition [CLK]. To be noted: for viability, T/C: stronger effect = lower value. From the text: A high-throughput screen of multi-cell type tumor spheroids was designed to identify active combinations of […] and targeted small molecules. Complex spheroids include a stromal component modeled by human endothelial cells (HUVEC) and fibroblasts modeled by human mesenchymal stem cells (MSCs). The concentration ranges selected for each drug and investigational agent were based upon clinically achievable concentrations if the clinical Cmax of the agent was known.
Compounds. The drugs and investigational agents: cirtuvivint (SM08502; NSC835563), CC-671 (NSC850746), vemurafenib (NSC761431), tapotoclax (NSC804041), sotorasib (NSC818433), adagrasib (NSC831453), MRTX-1133 (NSC836407), BAY2416964 (NSC825713), copanlisib (NSC816437), inavolisib (NSC800729), abemaciclib (NSC768073), osimertinib (NSC779217), entinostat (NSC756642), eltanexor (KPT-8602, NSC794443), venetoclax (NSC766270), ceralasertib (NSC777638), bortezomib (NSC756655), olaparib (NSC753686), talazoparib (NSC767125), alisertib (NSC759677), peposertib (NSC802822), gemcitabine (NSC613327), 5-fluorouracil (NSC19893), SN-38 (NSC673596), oxaliplatin (NSC266046), paclitaxel (NSC125973), and doxorubicin (NSC123127), were obtained from the National Cancer Institute (NCI) Developmental Therapeutics Program Chemical Repository. The FDA-approved anticancer drug set is available from the Developmental Therapeutics Program at https://dtp.cancer.gov/organization/dscb/obtaining/available plates.htm. […] The stock solutions were prepared in dimethyl sulfoxide (DMSO, Sigma-Aldrich, St. Louis, MO, cat. D2650), except for the platinum complexes which were prepared in saline (Quality Biological, Gaithersburg, MD, cat. 114-055-101), at 800-fold the tested concentration and stored at -70 degrees C prior to their use. All drugs and investigational agents were tested over a range starting from a high concentration at or near the clinical Cmax and decreasing in half-log increments. If the clinical Cmax for an agent had not been determined, the highest concentration tested was 10 microM.
Cell Culture. All cells were maintained in an incubator at 37 degrees C and 5% CO2 with 95% humidity. The PDC lines were cultured according to standard operating procedures established by the NCI PDMR. Briefly, all PDCs were thawed and cultured in Matrigel-coated flasks prepared with a working solution of 1X Ham's F-12 nutrient mix, without supplementation (Invitrogen, Waltham, MA, cat. 11765054), 100 U/mL penicillin-streptomycin (Invitrogen, cat. 15140122), and 2.5% Matrigel (Corning Inc., Corning, NY, cat. 354248) for the first three passages. The 947758-054-R-J2-PDC line was cultured in 6B/Colon 1A media, which includes advanced DMEM/F-12 (Thermo Fisher Scientific, cat. 12634028), 10 mM HEPES (Thermo Fisher Scientific, cat. 15630080), 1X GlutaMAX supplement (Thermo Fisher Scientific, cat. 35050061), 0.1 mg/mL primocin (InvivoGen, cat. ant-pm-2), 10% defined fetal bovine serum, heat inactivated (HyClone Laboratories Inc., cat. SH30070.03HI), 1.25 mM N-Acetyl-L-cysteine (Sigma-Aldrich, cat. A9165), 10 mM nicotinamide (Sigma-Aldrich, cat. N0636), 1X B-27 supplement (Thermo Fisher Scientific, cat. 17504044), 1X N-2 supplement (Thermo Fisher Scientific, cat. 17502048), and 10 microM Y-27632 dihydrochloride (Tocris Bioscience, cat. 1254). The 876862-298-R-J1-PDC was cultured in 6E media, which includes all 6B/Colon 1A media components plus 50% L-WRN conditioned media (ATCC, cat. CRL-3276), 50 ng/mL recombinant human EGF recombinant protein (hEGF; Thermo Fisher Scientific, cat. PHG0311), 10 ng/mL recombinant human fibroblast growth factor 10 (hGFG-10; PeproTech, cat. 100-26), 1 ng/mL recombinant human fibroblast growth factor 2 (hFGF-2; PeproTech, cat. 100-18B), and 1 µM prostaglandin E2 (PGE2; Tocris, cat. 2296). The 227483-062-R1-J1-PDC line was cultured in Panc media, containing all 6E components except hFGF-2, with the addition of 500 nM SB-431542 (Selleckchem, cat. S1067) and 10 nM gastrin (Tocris, cat. 3006). […]

pIC50: −log10 of the molar value. Values joined by “and” are separate entries in the source; they are usually repeats but may differ in a detail not shown here. Identical values can stand only once.
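Note: spheroids exposed to the drugs for 7 days before readout.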
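Throughout, for viability, T/C: 100% = DMSO vehicle control wells.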

As usually defined, the viability, T/C is the ratio of treated to control. A word on the pIC50: it is −log10 of the IC50, conventionally taken in molar units. Regarding `O=c1[nH]cc(F)c(=O)[nH]1`, the viability, T/C reads like this: (compound 0.0316 µM) 114% and 115%; (compound 0.1 µM) 103% and 95.1%; (compound 0.316 µM) 101%; (compound 1 µM) 78.4% and 79.6%; (compound 3.16 µM) 55.1% and 71.4%; (compound 10 µM) 47.6% and 53.4%. Also, for the setting “curve of compound”, the pIC50 is 5.17 and < 5.00.

Take `CC1COCCN1c1cc(C2(S(C)(=N)=O)CC2)nc(-c2ccnc3[nH]ccc23)n1` (stereo unspecified) + CNC(=O)c1ccc(Nc2nc(OC3CCCC3)c3c(-c4ccc5nc(C)oc5c4)c[nH]c3n2)c(OC)c1: the pIC50 is 5.19 (curve of first compound, second compound 0.0316 µM); 5.26 (curve of first compound, second compound 0.1 µM); 5.32 (curve of first compound, second compound 0.316 µM); 5.67 (curve of first compound, second compound 1 µM); 6.02 (curve of first compound, second compound 3.16 µM); 6.01 (curve of first compound, second compound 10 µM). The viability, T/C (second compound 0.0316 µM, first compound 0.0316 µM) is 101%; the viability, T/C (second compound 0.0316 µM, first compound 0.1 µM) was 98.3%; the viability, T/C (second compound 0.0316 µM, first compound 0.316 µM) is 91.2%; the viability, T/C (second compound 0.0316 µM, first compound 1 µM) is 83.2%; the viability, T/C (second compound 0.0316 µM, first compound 3.16 µM) was 62.8%; the viability, T/C (second compound 0.0316 µM, first compound 10 µM) was 42.1%. Also, the viability, T/C is 87.2% (second compound 0.1 µM, first compound 0.0316 µM); 78.4% (second compound 0.1 µM, first compound 0.1 µM); 77.1% (second compound 0.1 µM, first compound 0.316 µM); 74.4% (second compound 0.1 µM, first compound 1 µM); 53.5% (second compound 0.1 µM, first compound 3.16 µM); 43% (second compound 0.1 µM, first compound 10 µM). Further, the viability, T/C (second compound 0.316 µM, first compound 0.0316 µM) was 72.6%; the viability, T/C (second compound 0.316 µM, first compound 0.1 µM) is 69.3%; the viability, T/C (second compound 0.316 µM, first compound 0.316 µM) is 79%; the viability, T/C (second compound 0.316 µM, first compound 1 µM) was 80%; the viability, T/C (second compound 0.316 µM, first compound 3.16 µM) was 56.4%; the viability, T/C (second compound 0.316 µM, first compound 10 µM) was 38.7%. For the same molecule, the viability, T/C by setting is: (second compound 1 µM, first compound 0.0316 µM) 73.8%; (second compound 1 µM, first compound 0.1 µM) 66.8%; (second compound 1 µM, first compound 0.316 µM) 71%; (second compound 1 µM, first compound 1 µM) 62.8%; (second compound 1 µM, first compound 3.16 µM) 43.5%; (second compound 1 µM, first compound 10 µM) 32.6%. The viability, T/C is, setting by setting: (second compound 3.16 µM, first compound 0.0316 µM) 63.7%; (second compound 3.16 µM, first compound 0.1 µM) 63.2%; (second compound 3.16 µM, first compound 0.316 µM) 54.6%; (second compound 3.16 µM, first compound 1 µM) 52.5%; (second compound 3.16 µM, first compound 3.16 µM) 36.9%; (second compound 3.16 µM, first compound 10 µM) 27.6%. Also, the viability, T/C is 51.8% (second compound 10 µM, first compound 0.0316 µM); 58% (second compound 10 µM, first compound 0.1 µM); 54.5% (second compound 10 µM, first compound 0.316 µM); 49.8% (second compound 10 µM, first compound 1 µM); 31.9% (second compound 10 µM, first compound 3.16 µM); 21.8% (second compound 10 µM, first compound 10 µM).

Take `COc1ccc([C@@H](O)c2cc(-c3ncnc4cc(N5CCOCC5)ccc34)c(F)cc2Cl)nn1`: the viability, T/C reads like this: (compound 0.0316 µM) 104%; (compound 0.1 µM) 91.3% and 92.1%; (compound 0.316 µM) 87% and 103%; (compound 1 µM) 77.4% and 80.6%; (compound 3.16 µM) 64.5% and 71.6%; (compound 10 µM) 31.2% and 40.8%. The negative-log IC50 (pIC50) (curve of compound) was 5.31 and 5.15.
